In patent US20260308158A1, “TARGETING RNAS ASSOCIATED WITH TAUOPATHIES WITH SMALL MOLECULES” (University of Florida Research Foundation, Incorporated, priority 2023, published 2026):

How the values were obtained:
[1] = test system: MAPT pre-mRNA in LAN5 cells; test: Chem-CLIP-Map-Seq in LAN5 cells; type: cell-based; details: 3 at 1.5 μM
Description: Chem-CLIP-Map-Seq. Chem-CLIP-Map-Seq was performed as previously described.^32 Briefly, LAN5 cells were grown to ~80% confluency in 100 mm diameter dishes and treated with 1.5 μM of 3 for 12 h. Total RNA was extracted and pulled down as described in Measuring Cellular Occupancy by Chem-CLIP and C-Chem-CLIP. RT was carried out using 1 μg of RNA pulled down by 3, […] of a MAPT gene-specific primer (5′-[…] (SEQ ID NO: 7)), and SuperScript III (Invitrogen, 18080400) in a total volume of 10 μL per the manufacturer's protocol.
After digestion with RNase A and RNase H (part of the Superscript III protocol), the cDNA from the RT reaction was cleaned up using RNA Clean XP beads (Beckman Coulter) according to the manufacturer's protocol. The purified cDNA was ligated to a 3′ ssDNA adaptor (5′-Phosphate-[…]-[…]-3C spacer (SEQ ID NO: 8)) by incubating 2 μL 10× T4 RNA Ligase Buffer, 1 μL of 1 mM ATP, 10 μL 50% (w/v) PEG 8000, 5 μL cDNA, 1 μL of 20 μM ssDNA adaptor, and 1 μL of T4 RNA Ligase [New England BioLabs, Inc. (NEB)]. The ligated cDNA was purified again with RNAClean XP beads as described above.
PCR amplification was performed with the purified ligated cDNA by using Phusion polymerase (NEB) with cycling conditions of 98° C. for 30 s, 65° C. for 20 s, and 72° C. for 60 s and forward (5′-[…] (SEQ ID NO: 9)) and reverse (5′-[…] (SEQ ID NO: 10)) primers for 25 cycles. […]

[2] = test system: DDPAC MAPT mini-gene pre-mRNA; test: Chem-CLIP / C-Chem-CLIP in HeLa cells transfected with DDPAC mini-gene; type: cell-based; details: 3 at 1.5 μM, HeLa DDPAC mini-gene
Description: (§1) Measuring Cellular Occupancy by Chem-CLIP and C-Chem-CLIP. LAN5 cells were grown to ~80% confluency in 100 mm diameter dishes. HeLa cells were transfected as described in the Luciferase Reporter Assay to Study Exon 10 Alternative Splicing except they were re-plated in 100 mm diameter dishes and grown to ~80% confluency (~1 day). The cells were then treated with 1.5 μM of 3 or 4 for 12 h. For C-Chem-CLIP, dilutions of competing compounds 1 or 2 were pre-incubated with cells for 12 h prior to adding 3. After addition of 3, the cells were incubated for an additional 12 h. After the treatment period, whether for Chem-CLIP or C-Chem-CLIP studies, the cells were washed with 10 mL of 1×DPBS. Ice-cold 1×DPBS (10 mL) was then added to the plate followed by irradiation with 365 nm light in a UV Stratalinker 2400 (Stratagene). Cells were scraped with a cell scraper, transferred to a 15 mL conical vial, and collected by centrifugation. Total RNA was extracted using TRIzol LS Reagent (Invitrogen) per the manufacturer's protocol. […]
(§2) RT-qPCR was performed on RNA samples before and after pull-down as described in Real-Time Quantitative PCR to enable calculation of fold enrichment in the pulled down samples. Relative fold enrichment of tau pre-mRNA was measured using Equation 3: […]

DDPAC SRE RNA = test: In vitro Chem-CLIP, DDPAC SRE RNA; type: binding
Description: (§3) In Vitro Chemical Cross-linking and Isolation by Pull Down (Chem-CLIP) and Competitive Chem-CLIP (C-Chem-CLIP). Growth medium [Dulbecco's modified eagle medium (DMEM; corning, 10-013-CM) with 1× Glutagro (corning)] and 10% (v/v) fetal bovine serum (FBS; Sigma, 12003C) was inactivated by heating at 95° C. for 15 min and slowly cooling to room temperature. Approximately 10,000 counts of 32P 5′-end labeled tau WT, DDPAC, WT+I17T, or DDPAC+I17T RNA were folded in 10 μL growth medium by heating at 65° C. for 5 min and slowly cooling to room temperature. Chem-CLIP probe 3 or negative control probe 4 was then added into the folded RNA in a total volume of 20 μL, and the mixtures were incubated at 37° C. for 1 h. For C-Chem-CLIP, dilutions of competing compound 2 were incubated with RNA for 30 min before adding 3. […]
(§4) The Chem-CLIP probe 3 or control probe 4 was then clicked to disulfide biotin azide (2 μL of 10 mM solution prepared in DMSO solution per sample; Click Chemistry Tools, catalog no. 1168-10). […] The radioactive signal from bound RNAs (on the beads) and unbound RNAs (in the wash buffer) was measured by using a Beckman Coulter LS6500 Liquid Scintillation Counter as Rbound and Runbound. Enrichment was calculated as the percentage of radiolabeled RNA captured by beads calculated as Rbound/(Rbound+Runbound).

[3] = test system: WT I17T MAPT mini-gene pre-mRNA; test: Chem-CLIP in HeLa cells transfected with WT I17T mini-gene; type: cell-based; details: 1.5 μM
Description: as §1, §2

[4] = test system: DDPAC I17T MAPT mini-gene pre-mRNA; test: Chem-CLIP in HeLa cells transfected with DDPAC I17T mini-gene; type: cell-based; details: 1.5 μM
Description: as §1, §2

DDPAC I17T mutant RNA = test: In vitro Chem-CLIP, DDPAC I17T RNA; type: binding; details: 50 μM
Description: as §3, §4

WT I17T mutant RNA = test: In vitro Chem-CLIP, WT I17T RNA; type: binding; details: 50 μM
Description: as §3, §4

WT SRE RNA = test: In vitro Chem-CLIP, WT SRE RNA; type: binding
Description: as §3, §4

[5] = test system: WT MAPT mini-gene pre-mRNA; test: Chem-CLIP / C-Chem-CLIP in HeLa cells transfected with WT mini-gene; type: cell-based; details: 3 at 1.5 μM, HeLa WT mini-gene
Description: as §1, §2

[6] = test system: endogenous MAPT pre-mRNA in LAN5 cells; test: Chem-CLIP / C-Chem-CLIP in LAN5 cells; type: cell-based; details: 3 at 1.5 μM
Description: as §1, §2

[7] = in vitro Chem-CLIP, read-out: IC50 for engaging and pull-down of RNA

C#CCCC1(CCC(=O)NCCN(CCCc2cnc(N)cc2OC)CCCn2cnc3c4ccccc4n(C)c3c2=O)N=N1 [Compound 3]
cross-linking site in MAPT RNA [1]: cross-linking occurred to the G in the 5′ CG closing base pair of the A-bulge | enrichment of MAPT reporter [2]: 3.8±0.1 fold | maximum percent pull-down (DDPAC SRE RNA; 10 and 50 μM): ~ 40% | IC50 (DDPAC SRE RNA; [7]): ~1 µM | enrichment of mutant reporter [3]: nor was enrichment observed | enrichment of mutant reporter [4]: nor was enrichment observed | percent pull-down (engagement) (DDPAC I17T mutant RNA): 9±0.7% | percent pull-down (engagement) (WT I17T mutant RNA): 15±0.9% | maximum percent pull-down (WT SRE RNA; 10 and 50 μM): ~ 40% | IC50 (WT SRE RNA; [7]): ~1 µM | enrichment of MAPT reporter [5]: 3.9±0.1 fold | enrichment of MAPT pre-mRNA [6]: 3.6±0.2 fold
